Data as given in patent publication US8829039B2, “Dihydroindolinone derivatives” (Shanghai Institute of Pharmaceutical Industry, priority 2008, dated 2014).

What was measured:
[1] = tested on: Human cervical cancer cell Hela; assay: Anti-tumor activity assay (MTT), Hela; assay type: cell-based; conditions: 48 hrs, samples freshly prepared with DMSO, read-out: Inhibition rate; for inhibition at 0.1 µg/mL: final concentration 0.1 μg/mL; for inhibition at 1 µg/mL: final concentration 1 μg/mL; for inhibition at 10 µg/mL: final concentration 10 μg/mL
Protocol: (§1) These tests were carried out using conventional operations in the art. Specifically, the following materials and methods were employed:
(§2) Human cervical cancer cell Hela, human liver cancer cell SMMC-7721, human lung cancer cell A549, poorly differentiated human gastric adenocarcinoma cell BGC-823, human breast cancer cell MDA-MB-231.
(§3) To a bottle containing exponential growth phase cells in good condition, 0.25% trypsin solution was added. […] The cell suspension was seeded in a 96-well plate with an amount of 100 μL/well, incubated in a CO2 incubator for 24 hrs. 20 μL/well of tested compounds were added, followed by […], of 10% serum medium, and incubated for 48 hrs. 20 μL/well of MTT (5 mg/mL) was added to the 96-well plate, and the cells were incubated for 4 hrs in the incubator. After removing the supernatant, 150 μL/well of DMSO was added, and the cells were shaked in a horizontal swing bed for 10 minutes. Optical density value (OD value) of each well was measured with an ELISA analyzer at 490 nm, and cell inhibition rate was calculated. The corresponding solvent was used as negative control, and paclitaxel was used as positive control.

[2] = tested on: human liver cancer cell SMMC-7721; assay: Anti-tumor activity assay (MTT), SMMC-7721; assay type: cell-based; conditions: 48 hrs, samples stored at −20° C. for one week, read-out: Inhibition rate; for inhibition at 0.1 µg/mL: final concentration 0.1 μg/mL; for inhibition at 1 µg/mL: final concentration 1 μg/mL; for inhibition at 10 µg/mL: final concentration 10 μg/mL
Protocol: as §1, §2, §3

[3] = tested on: poorly differentiated human gastric adenocarcinoma cell BGC-823; assay: Anti-tumor activity assay (MTT), BGC-823; assay type: cell-based; conditions: 48 hrs, samples stored at −20° C. for one week, read-out: Inhibition rate; for inhibition at 0.1 µg/mL: final concentration 0.1 μg/mL; for inhibition at 1 µg/mL: final concentration 1 μg/mL; for inhibition at 10 µg/mL: final concentration 10 μg/mL
Protocol: as §1, §2, §3

[4] = tested on: human lung cancer cell A549; assay: Anti-tumor activity assay (MTT), A549; assay type: cell-based; conditions: 48 hrs, samples stored at −20° C. for one week, read-out: Inhibition rate; for inhibition at 0.1 µg/mL: final concentration 0.1 μg/mL; for inhibition at 1 µg/mL: final concentration 1 μg/mL; for inhibition at 10 µg/mL: final concentration 10 μg/mL
Protocol: as §1, §2, §3

[5] = tested on: human breast cancer cell MDA-MB-231; assay: Anti-tumor activity assay (MTT), MDA-MB-231; assay type: cell-based; conditions: 48 hrs, samples stored at −20° C. for one week, read-out: Inhibition rate; for inhibition at 0.1 µg/mL: final concentration 0.1 μg/mL; for inhibition at 1 µg/mL: final concentration 1 μg/mL; for inhibition at 10 µg/mL: final concentration 10 μg/mL
Protocol: as §1, §2, §3

[6] = tested on: Lung cancer cell H460; assay: Inhibition of tumor cell proliferation in vitro (MTT), H460; assay type: cell-based; conditions: Homo sapiens, NCI-H460, 48 hrs, read-out: Growth inhibition in vitro IC50
Protocol: (§4) The activity assay of the compounds of the invention was carried out through common methods in the art. Commercially available Sunitinib was used as positive control, and lung cancer cell H460, colon cancer cell COLO205 and HT29, breast cancer cell A435 were used as exemplary tumor cells. The tested compounds were prepared by the methods disclosed in the Examples above.
(§5) A certain amount (100 μL/well, 0.5−1×10^4 cells/mL) of lung cancer cell H460, colon cancer cell COLO205, and breast cancer cell A435, etc. in logarithmic growth phase were seeded in a 96-well plate, and incubated in an incubator for 24 hrs at 37° C. and 5% CO2. Afterwards, tested compounds and positive control (20 μL/wells) were added, followed by 80 µL of 10% serum medium, and then the tumor cells were incubated for further 48 hrs at 37° C. and 5% CO2. Afterwards, MTT (5 mg/mL) was added to the 96-well plates (20 μL/well), and the cells were incubated for another 4 h. After removing the supernatant, the cells were dissolved with DMSO (150 μL/well) and measured with a microplate reader at 490 nm.

[7] = tested on: colon cancer cell COLO205; assay: Inhibition of tumor cell proliferation in vitro (MTT), COLO205; assay type: cell-based; conditions: Homo sapiens, COLO 205, 48 hrs, read-out: Growth inhibition in vitro IC50
Protocol: as §4, §5

[8] = tested on: breast cancer cell A435; assay: Inhibition of tumor cell proliferation in vitro (MTT), A435; assay type: cell-based; conditions: 48 hrs, read-out: Growth inhibition in vitro IC50
Protocol: as §4, §5

[9] = tested on: human colon cancer HT-29 cells transplanted in nude mice; assay: Growth inhibition of human cancer HT-29 cells transplanted in nude mice; assay type: in vivo; conditions: for Body weight d0 / Body weight d21: nude mice with HT-29 tumor; for Body weight d0: d0, time of administration in separate cages; for Body weight d0 / TV d0: 30 mg/kg group; for Body weight d21 / T/C (%) / RTV / TV d21: 30 mg/kg intragastrically once a day for 21 days; for T/C (%): relative tumor proliferation rate TRTV/CRTV; for RTV: relative tumor volume TVt/TV0; for TV d0: tumor volume at d0, time of administration in separate cages; for TV d21: tumor volume at d21
Protocol: A piece of tumor tissue in vigorous growth phase was obtained and cut into the size of about 1.5 mm^3, and subcutaneously inoculated into the right axillary region of nude mice aseptically. Diameters of transplanted tumors in nude mice were measured with a vernier caliper. After tumors grew to 100˜300 mm^3, the animals were randomly divided into 6 groups: model control group, Sunitinib group (30 mg/kg), Compound 1 group (30 mg/kg), Compound 2 group (30 mg/kg), Compound 3 group (30 mg/kg), Compound 4 group (30 mg/kg). […] Meanwhile, the negative control group was administered equivalent amount of sterile saline. The dynamic observation of antitumor effects of compounds 1-4 and Sunitinib was performed by measuring tumor diameters. […] The general behavior of nude mice was observed and recorded daily. (1) Tumor volume (TV), calculated by the equation: […] wherein a, b represent length and width, respectively. […] RTV=TVt/TV0 wherein TV0 represents the tumor volume at the beginning of administration in separated cages (ie. d0), TVt represents the tumor volume of each measurement. […] T/C %=(TRTV/CRTV)×100% TRTV: RTV of positive control group and each test compound group. CRTV: RTV of model control group.

[10] = tested on: Fibroblast NIH/3T3; assay: Inhibition of fibroblast NIH/3T3 proliferation (MTT); assay type: cell-based; conditions: Mus musculus, NIH3T3, 48 h, read-out: Inhibition of NIH/3T3 cell proliferation in vitro IC50
Excerpt: The method commonly used at present for studying fibroblast proliferation associated diseases, i.e., for studying tissue and organ fibrosis, is measuring effects of test compounds on NIH/3T3 cell proliferation (Gao Z. M., Wan K., Effect of inhibition of NIH/3T3 cell proliferation by Cantharidin on prevention and treatment of organ and tissue fibrosis. Chinese Journal of Clinical Rehabilitation, 2004 (2). Tao Y. Y., Wang X. L., Effects of Salvianolic Acid-B on TGF-β1/ERK Signaling Transduction in NIH/3T3 Fibroblast. Journal of Capital Medical University, 2007 (2)).
Fibroblast NIH/3T3 in logarithmic growth phase was seeded in a 96-well plate, by a certain number of cells (100 μL/well, 0.5−1×10^4 cells/mL). After incubating for 24 h, the screened samples (20 μl/well) were added (directly added after cell suspension was seeded in the plate), incubated for further 48 h at 37° C. and 5% CO2. Afterwards, MTT (5 mg/mL) was added to the 96-well plate (20 μL/well). The cells were incubated for another 4 h, and then dissolved with DMSO (150 μL/well) and measured with a microplate reader at 490 nm. The inhibition rate and IC50 were calculated.

Structure (SMILES)	inhibition at 0.1 µg/mL [1] [%]	inhibition at 1 µg/mL [1] [%]	inhibition at 10 µg/mL [1] [%]	inhibition at 0.1 µg/mL [2] [%]	inhibition at 1 µg/mL [2] [%]	inhibition at 0.1 µg/mL [3] [%]	inhibition at 1 µg/mL [3] [%]	inhibition at 0.1 µg/mL [4] [%]	inhibition at 1 µg/mL [4] [%]	inhibition at 0.1 µg/mL [5] [%]	inhibition at 1 µg/mL [5] [%]	inhibition at 10 µg/mL [5] [%]	IC50 [6] [nM]	IC50 [7] [nM]	IC50 [8] [nM]	Body weight d0 [9] [g]	Body weight d21 [9] [g]	T/C (%) [9] [%]	RTV [9]	IC50 [10] [nM]	further results
CCN1CCCC1CNC(=O)c1c(C)[nH]c(/C=C2\C(=O)Nc3ccc(F)cc32)c1C (stereo not shown) [Compound 1, N-[(1-ethylpyrrolidin-2-yl)methyl]-5-(5-fluoro-2-oxo-1,2-dihydroindole-3-methylene)-2,4-dimethyl-1H-pyrrole-3-formamide]	4.69	32.5	97.4	-21.2	-0.47	14.8	20	18.6	31.1	-8.3	6.9	92.2	61	78	63	20.2 ± 1.9	21.5 ± 1.3	10.1	0.9 ± 0.2	205	inhibition at 10 µg/mL [2]: 88.5%; inhibition at 10 µg/mL [3]: 93.9%; inhibition at 10 µg/mL [4]: 99.3%; growth inhibition of human colon cancer HT-29 cells transplanted in nude mice (in words) ([9]; 30 mg/kg continuously administered intragastrically): strongest inhibition of tumor proliferation; TV d0 [9]: 194.7 ± 57.7 mm^3; TV d21 [9]: 163.7 ± 33.6 mm^3; melting point: 232 to 236 °C
Cc1[nH]c(/C=C2\C(=O)Nc3ccc(F)cc32)c(C)c1C(=O)NCC1CCNCC1 [Compound 4]													580	400	220	20.0 ± 2.2	20.3 ± 1.5	41.0	3.6 ± 3.2	1180	TV d0 [9]: 195.0 ± 67.4 mm^3; TV d21 [9]: 791.7 ± 815.0 mm^3
Cc1[nH]c(/C=C2\C(=O)Nc3ccc(F)cc32)c(C)c1C(=O)NC1CCN(Cc2ccccc2)C1 (stereo not shown) [Compound 6, N-(1-benzylpyrrolidin-3-yl)-5-(5-fluoro-2-oxo-1,2-dihydroindole-3-methylene)-2,4-dimethyl-1H-pyrrole-3-formamide]													330	220	87					698	
Cc1[nH]c(/C=C2\C(=O)Nc3ccc(F)cc32)c(C)c1C(=O)Nc1ccc(N(C)C)cc1 [Compound 7, N-[4-(dimethylamino)phenyl]-5-(5-fluoro-2-oxo-1,2-dihydroindole-3-methylene)-2,4-dimethyl-1H-pyrrole-3-formamide]													230	170	82					505	
Cc1[nH]c(/C=C2\C(=O)Nc3ccc(F)cc32)c(C)c1C(=O)NCC(=O)Nc1ccc(N(C)C)cc1 [Compound 8, N-{2-[4-(dimethylamino)anilino]-2-oxoethyl}-5-(5-fluoro-2-oxo-1,2-dihydroindole-3-methylene)-2,4-dimethyl-1H-pyrrole-3-formamide]													170	160	91					884	
CCN1CCCC1CNC(=O)CNC(=O)c1c(C)[nH]c(/C=C2\C(=O)Nc3ccc(F)cc32)c1C (stereo not shown) [Compound 11, N-{2-[(1-ethylpyrrolidin-2-yl)methylamino]-2-oxoethyl}-5-(5-fluoro-2-oxo-1,2-dihydroindole-3-methylene)-2,4-dimethyl-1H-pyrrole-3-formamide]													410	280	150						
CCN1CCCC1CNC(=O)C(C)NC(=O)c1c(C)[nH]c(/C=C2\C(=O)Nc3ccc(F)cc32)c1C (stereo not shown) [Compound 12, N-{2-[(1-ethylpyrrolidin-2-yl)methylamino]-1-oxoprop-2-yl}-5-(5-fluoro-2-oxo-1,2-dihydroindole-3-methylene)-2,4-dimethyl-1H-pyrrole-3-formamide]													440	310	160						
CC(=O)O[C@H]1C(=O)[C@@]2(C)[C@H]([C@H](OC(=O)c3ccccc3)[C@]3(O)C[C@H](OC(=O)[C@H](O)[C@@H](NC(=O)c4ccccc4)c4ccccc4)C(C)=C1C3(C)C)[C@]1(OC(C)=O)CO[C@@H]1C[C@@H]2O [Paclitaxel, reference compound]	79.7	78.1	72.7	-6.71	-6.59	85.1	86.6	20.1	23.8	5.9	4.9	29.5									
CCN(CC)CCNC(=O)c1c(C)[nH]c(/C=C2\C(=O)Nc3ccc(F)cc32)c1C [Sunitinib, reference compound]	-0.21	24.7	99.2	-38.8	-12.3	9.53	19.2	7.29	29.1	6.4	28.9	90.2	680	550	630	20.4 ± 2.0	21.0 ± 1.9	51.5	4.6 ± 1.5		inhibition at 10 µg/mL [2]: 72.5%; inhibition at 10 µg/mL [3]: 88.8%; inhibition at 10 µg/mL [4]: 98.7%; TV d0 [9]: 198.2 ± 62.4 mm^3; TV d21 [9]: 911.8 ± 481.7 mm^3
